Laboratory results taken from patent publication US20050209278A1, “Piperidinyl- and piperazinyl-sulfonylmethyl hydroxamic acids and their use as protease inhibitors” (priority 2002, published 2005).
Like-named read-outs stand apart in the source and are kept apart here.

Molecular target: T1, MMP-2 (Homo sapiens, UniProt P08253)
T1 construct: made in house; host or cells: MMP-2-transfected p2AHT2 cells
T1 sequence (P08253 110-660): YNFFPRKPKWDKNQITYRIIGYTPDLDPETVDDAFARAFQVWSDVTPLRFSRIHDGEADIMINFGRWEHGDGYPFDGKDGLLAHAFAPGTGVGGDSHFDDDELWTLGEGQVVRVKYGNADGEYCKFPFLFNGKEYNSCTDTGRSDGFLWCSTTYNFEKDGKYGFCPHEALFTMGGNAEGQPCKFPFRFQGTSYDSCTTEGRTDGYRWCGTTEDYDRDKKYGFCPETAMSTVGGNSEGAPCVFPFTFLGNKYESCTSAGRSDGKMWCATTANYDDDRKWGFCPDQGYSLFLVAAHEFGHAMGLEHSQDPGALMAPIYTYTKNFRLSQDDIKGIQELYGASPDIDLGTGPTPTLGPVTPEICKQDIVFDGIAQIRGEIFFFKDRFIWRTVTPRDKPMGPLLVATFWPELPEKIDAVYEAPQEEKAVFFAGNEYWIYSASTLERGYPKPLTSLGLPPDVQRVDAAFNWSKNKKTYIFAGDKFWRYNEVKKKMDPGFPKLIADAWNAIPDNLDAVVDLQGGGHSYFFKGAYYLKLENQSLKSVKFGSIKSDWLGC
Experiment: In vitro MMP inhibition, Ki determination (fluorogenic substrate II)
Assay type: biochemical
Conditions: read-out: MMP-2 Ki

Row | SMILES | Ki (value not in parenthesis) | Ki (value outside parentheses)
1 | CCCCc1ccc(C2CCN(S(=O)(=O)C3(C(=O)NO)CCN(CCOC)CC3)CC2)s1 [Example 55] | 2.2 nM | –
2 | O=C(NO)C1(S(=O)(=O)N2CCN(c3ccc(COCC(F)(F)C(F)F)cc3)CC2)CCOCC1 [Example 71] | 2.35 nM | –
3 | O=C(NO)C1(S(=O)(=O)N2CCN(c3ccc(COCC(F)(F)F)cc3)CC2)CCOCC1 [Example 72] | 2.44 nM | –
4 | O=C(NO)C1(S(=O)(=O)N2CCN(c3ccc(OC4CCC4)c(F)c3)CC2)CCOCC1 [Example 73] | 2.2 nM | –
5 | O=C(NO)C1(S(=O)(=O)N2CCN(c3ccc(OCc4ccccc4)cn3)CC2)CCOCC1 [Example 74] | 0.5 nM | –
6 | O=C(NO)C1(S(=O)(=O)N2CCN(c3ccc(-c4ccccc4)cc3)CC2)CCOCC1 [Example 76] | 0.19 nM | –
7 | O=C(NO)C1(S(=O)(=O)N2CCN(c3ccc(CCC(F)(F)F)cc3)CC2)CCOCC1 [Example 77] | 0.38 nM | –
8 | CCN1CCC(C(=O)NO)(S(=O)(=O)N2CCN(c3ccc(OCCCC(F)(F)F)cc3)CC2)CC1 [Example 78] | 2.56 nM | –
9 | CC(C)COc1ccc(N2CCN(S(=O)(=O)C3(C(=O)NO)CCOCC3)CC2)cc1Cl [Example 79] | 10.1 nM | –
10 | O=C(NO)C1(S(=O)(=O)N2CCN(c3ccc(OCCCC(F)(F)F)cc3F)CC2)CCOCC1 [Example 81] | 0.407 nM | –
11 | O=C(NO)C1(S(=O)(=O)N2CCN(c3cccc(C(F)(F)F)c3)CC2)CCOCC1 [Example 82] | 8.74 nM | –
12 | O=C(NO)C1(S(=O)(=O)N2CCN(c3ccc(OCCCC(F)(F)F)cn3)CC2)CCOCC1 [Example 83] | 0.251 nM | –
13 | CCCCOc1ccc(N2CCN(S(=O)(=O)C3(C(=O)NO)CCN(C(C)(C)C)CC3)CC2)c(F)c1 [Example 84] | 7.53 nM | –
14 | CCCCOc1ccc(N2CCN(S(=O)(=O)C3(C(=O)NO)Cc4ccccc4C3)CC2)nc1 [Example 85] | 0.64 nM | –
15 | COCCN1CCC(C(=O)NO)(S(=O)(=O)N2CCN(c3ccc(OCCCCF)cc3)CC2)CC1 [Example 88] | 0.54 nM | –
16 | O=C(NO)C1(S(=O)(=O)N2CCN(c3ccc(OCCCCF)cc3)CC2)CCOCC1 [Example 89] | 0.49 nM | –
17 | CCCCOc1ccc(N2CCN(S(=O)(=O)C3(C(=O)NO)CCOCC3)CC2)c(F)c1 [Example 90] | 1.68 nM | –
18 | CCCCc1ccc(N2CCN(S(=O)(=O)C3(C(=O)NO)CCOCC3)CC2)c(F)c1 [Example 91] | 1.22 nM | –
19 | CCCCOc1ccc(N2CCN(S(=O)(=O)C3(C(=O)NO)CCN(c4nc5ccccc5s4)CC3)CC2)cc1 [Example 93] | 6.92 nM | –
20 | O=C(NO)C1(S(=O)(=O)N2CCN(c3ccc(C(F)(F)F)cn3)CC2)CCOCC1 [Example 94] | 0.66 nM | –
21 | CCCCCc1ccc(N2CCN(S(=O)(=O)C3(C(=O)NO)CCN(c4ncccn4)CC3)CC2)nc1 [Example 95] | 0.64 nM | –
22 | CCCCc1ccc(N2CCN(S(=O)(=O)C3(C(=O)NO)CCN(c4cccnc4)CC3)CC2)nc1 [Example 96] | 0.2 nM | –
23 | CCCCOc1ccc(N2CCN(S(=O)(=O)C3(C(=O)NO)CCN(C(=O)OCC(C)(C)C)CC3)CC2)cc1 [Example 97] | 6.69 nM | –

Row | SMILES | Ki (value not in parenthesis) | Ki (value outside parentheses)
24 | C#CCOC(=O)N1CCC(C(=O)NO)(S(=O)(=O)N2CCN(c3ccc(OCCCC)cc3)CC2)CC1 [Example 98] | 0.5 nM | –
25 | CCCCc1ccc(N2CCN(S(=O)(=O)C3(C(=O)NO)CCN(c4ncccn4)CC3)CC2)nc1 [Example 99] | 0.17 nM | –
26 | CCCCOc1ccc(N2CCN(S(=O)(=O)C3(C(=O)NO)CCOCC3)CC2)nc1 [Example 100] | 0.13 nM | –
27 | CCCCOc1ccc(N2CCN(S(=O)(=O)C3(C(=O)NO)CCN(c4ccc(Cl)c(Cl)c4)CC3)CC2)cc1 [Example 250] | 29.9 nM | –
28 | CCCCOc1ccc(N2CCN(S(=O)(=O)C3(C(=O)NO)CCN(c4ccc(Cl)cc4)CC3)CC2)cc1 [Example 251] | – | 22.5 nM
29 | CCCCOc1ccc(N2CCN(S(=O)(=O)C3(C(=O)NO)CCN(Cc4ccco4)CC3)CC2)cc1 [Example 252] | – | 1.38 nM
30 | CCCCOc1ccc(N2CCN(S(=O)(=O)C3(C(=O)NO)CCN(C(N)=O)CC3)CC2)cc1 [Example 253] | – | 0.761 nM
31 | CCCCOc1ccc(N2CCN(S(=O)(=O)C3(C(=O)NO)CCN(C(=O)N(C)C)CC3)CC2)cc1 [Example 254] | – | 0.309 nM
32 | CCCCOc1ccc(N2CCN(S(=O)(=O)C3(C(=O)NO)CCN(C(=O)c4ccccc4)CC3)CC2)cc1 [Example 255] | – | 0.858 nM
33 | CCCCOc1ccc(N2CCN(S(=O)(=O)C3(C(=O)NO)CCN(c4ccc(C(F)(F)F)cn4)CC3)CC2)cc1 [Example 257] | – | 9.64 nM
34 | O=C(NO)C1(S(=O)(=O)N2CCN(c3ccc(SC(F)(F)F)cc3)CC2)CCS(=O)(=O)CC1 [Example 258] | – | 4.06 nM
35 | CCCCOc1ccc(N2CCN(S(=O)(=O)C3(C(=O)NO)CCN(C(=O)c4ccncc4)CC3)CC2)cc1 [Example 259] | – | 0.468 nM
36 | CCCCOc1ccc(N2CCN(S(=O)(=O)C3(C(=O)NO)CCN(C(=O)C4CC4)CC3)CC2)cc1 [Example 260] | – | 0.467 nM
37 | CCc1ccc(N2CCN(S(=O)(=O)C3(C(=O)NO)CCCC3)CC2)nc1 [Example 261] | – | 0.276 nM
38 | CCc1ccc(N2CCN(S(=O)(=O)C3(C(=O)NO)CCCCC3)CC2)nc1 [Example 263] | – | 0.188 nM
39 | CCCCOc1ccc(N2CCN(S(=O)(=O)C3(C(=O)NO)CCN(c4ccccc4)CC3)CC2)cc1 [Example 264] | – | 8.23 nM
40 | CCCCOc1ccc(N2CCN(S(=O)(=O)C3(C(=O)NO)CCN(C(=O)CC(F)(F)F)CC3)CC2)cc1 [Example 265] | – | 0.878 nM
41 | CCCCOc1ccc(N2CCN(S(=O)(=O)C3(C(=O)NO)CCN(C(=O)c4cccnc4)CC3)CC2)cc1 [Example 266] | – | 0.422 nM
42 | CCCCOc1ccc(N2CCN(S(=O)(=O)C3(C(=O)NO)CCN(C(=O)C(C)(C)C)CC3)CC2)cc1 [Example 267] | – | 0.836 nM
43 | CCCCOc1ccc(N2CCN(S(=O)(=O)C3(C(=O)NO)CCN(C(=O)COC)CC3)CC2)cc1 [Example 268] | – | 0.564 nM
44 | CCCCOc1ccc(N2CCN(S(=O)(=O)C3(C(=O)NO)CCN(C=O)CC3)CC2)cc1 [Example 269] | – | 0.436 nM
45 | CCCCc1ccc(N2CCN(S(=O)(=O)C3(C(=O)NO)CCN(CCOC)CC3)CC2)nc1 [Example 270] | – | 0.176 nM
46 | CCCCOc1ccc(N2CCN(S(=O)(=O)C3(C(=O)NO)CCN(C(=O)CO)CC3)CC2)cc1 [Example 271] | – | 0.668 nM

Now from value to compound:

Row | Ki (value not in parenthesis) | Ki (value outside parentheses) | SMILES
47 | – | 0.662 nM | CCCCCc1ccc(N2CCN(S(=O)(=O)C3(C(=O)NO)CCN(C4CC4)CC3)CC2)cc1 [Example 272]
48 | – | 0.622 nM | CCCCOc1ccc(N2CCN(S(=O)(=O)C3(C(=O)NO)CCN(C(=O)C(C)C)CC3)CC2)cc1 [Example 273]
49 | – | 0.826 nM | CCCCOc1ccc(N2CCN(S(=O)(=O)C3(C(=O)NO)CCN(C(=O)CC)CC3)CC2)cc1 [Example 274]
50 | – | 0.381 nM | CCCCOc1ccc(N2CCN(S(=O)(=O)C3(C(=O)NO)CCN(c4ccc(C)nn4)CC3)CC2)cc1 [Example 275]
51 | – | 5.7 nM | CCCCOc1ccc(N2CCN(S(=O)(=O)C3(C(=O)NO)CCNCC3)CC2)cc1 [Example 276]
52 | – | 0.42 nM | CCCCOc1ccc(N2CCN(S(=O)(=O)C3(C(=O)NO)CCN(C(=O)c4ccccn4)CC3)CC2)cc1 [Example 277]
53 | – | 0.81 nM | CCCCOc1ccc(N2CCN(S(=O)(=O)C3(C(=O)NO)CCN(C(=O)CCCC)CC3)CC2)cc1 [Example 278]
54 | – | 1.11 nM | CC(C)CCOc1ccc(N2CCN(S(=O)(=O)C3(C(=O)NO)CCOCC3)CC2)cc1 [Example 279]
55 | – | 2.76 nM | CCCCOc1ccc(N2CCN(S(=O)(=O)C3(C(=O)NO)CCN(C)CC3)CC2)cc1 [Example 280]
56 | – | 0.769 nM | CCCCOc1ccc(N2CCN(S(=O)(=O)C3(C(=O)NO)CCN(c4ccc(Cl)nn4)CC3)CC2)cc1 [Example 281]
57 | – | 0.5 nM | CCCCOc1ccc(N2CCN(S(=O)(=O)C3(C(=O)NO)CCN(C(C)=O)CC3)CC2)cc1 [Example 282]
58 | – | 0.37 nM | CCCCOc1ccc(N2CCN(S(=O)(=O)C3(C(=O)NO)CCN(c4ccc(O)nn4)CC3)CC2)cc1 [Example 283]
59 | – | 0.81 nM | CCCCOc1ccc(N2CCN(S(=O)(=O)C3(C(=O)NO)CCN(CCOC)CC3)CC2)c(F)c1 [Example 284]
60 | – | 1.55 nM | CCCCOc1ccc(N2CCN(S(=O)(=O)C3(C(=O)NO)CCN(Cc4ccccc4)CC3)CC2)cc1F [Example 285]
61 | – | 5.17 nM | CCCCOc1ccc(N2CCN(S(=O)(=O)C3(C(=O)NO)CCNCC3)CC2)cc1F [Example 286]
62 | – | 9.44 nM | COCCN1CCC(C(=O)NO)(S(=O)(=O)N2CCN(c3ccc(Oc4ccccc4)cc3)CC2)CC1 [Example 287]
63 | – | 1.74 nM | CCCCOc1ccc(N2CCN(S(=O)(=O)C3(C(=O)NO)CCN(C(=O)CN)CC3)CC2)cc1 [Example 292]
64 | – | 0.486 nM | CCCCOc1ccc(N2CCN(S(=O)(=O)C3(C(=O)NO)CCN(Cc4cccnc4)CC3)CC2)cc1F [Example 293]
65 | – | 8.76 nM | CCCCOc1ccc(N2CCN(S(=O)(=O)C3(C(=O)NO)CCN(c4ccc(C)cc4)CC3)CC2)cc1 [Example 295]
66 | – | 6.73 nM | CCCCOc1ccc(N2CCN(S(=O)(=O)C3(C(=O)NO)CCN(c4ccc(C)cc4)CC3)CC2)cc1F [Example 296]
67 | – | 1.36 nM | COCCOc1ccc(N2CCN(S(=O)(=O)C3(C(=O)NO)CCN(C4CC4)CC3)CC2)cc1F [Example 297]
68 | – | 3.27 nM | CCCCOc1ccc(N2CCN(S(=O)(=O)C3(C(=O)NO)CCN(CC4CC4)CC3)CC2)cc1 [Example 298]
69 | – | 22.5 nM | Cc1cc(N2CCN(S(=O)(=O)C3(C(=O)NO)CCOCC3)CC2)ccc1OC(C)C [Example 299]
